These results are taken from patent US20090074740A1, “Use of haptoglobin genotyping in diagnosis and treatment of defective reverse cholesterol transport (RCT)” (priority 2007, published 2009).

The conditions of experiment [1]: per 1 mg, National Formulary; cited from earlier work.
The test system of another experiment is J774 macrophages. Kind of experiment: Cholesterol efflux from J774 macrophages elicited by serum from Hp 2-2 DM mice treated with vitamin E. The class given is in vivo. The following applies: 40 mg/kg/day beginning three weeks after induction of DM, serum on J774 cells. An excerpt:
(§1) Hp transgenic mice and veneration of DM. All protocols were approved by the Animal Care and Use Committee of the Technion. […]. The characterization and generation of Hp 1 and Hp 2 mice in a C57B1/6 genetic background has previously been described in detail. Briefly, the murine Hp 1 allele is the wild type murine Hp allele. The Hp 2 allele exists only in man and a murine Hp 2 allele was genetically engineered in vitro and its insertion targeted at the Hp locus by homologous recombination. […] Diabetes was generated in these mice at 8 weeks of age using a low dose streptozotocin protocol (NIH Funded Consortium on Animal Models of Diabetic Complications protocol available on the consortium web site www.amdcc.org) and confirmed by measuring plasma glucose. Mice were diabetic for at least 1 month prior to analysis.
(§2) Vitamin E (racemic, alpha-tocopherol acetate, Merck) was administered to a subset of the Hp 2-2 DM mice at a dose of 40 mg/kg/day beginning three weeks after the induction of DM.

Experiment [2] is described as follows: ICARE study: vitamin E versus placebo in Hp 2-2 Type II DM individuals (MI, stroke, CVD death). The format is in vivo, human. An excerpt:
The study protocol of the ICARE study involves the following: participants were drawn from 47 primary health clinics of the Clalit Health Services in the northern sector of Israel. Patients were eligible for the study if they had Type II DM and were 55 years of age or older. […] These Hp 2-2 individuals were randomly assigned to treatment with either vitamin E or placebo. The major study outcomes (MI, stroke, CVD death) were identified prospectively in this population over an 18 month period. A preplanned secondary analysis of ICARE was to assess the ability of vitamin E therapy to influence outcomes in those ICARE participants who were also taking statins. Statin use as prospectively defined in ICARE was based on the use of statins by the participant in at least eight of the twelve months preceding enrollment of the participant in the study. The decision to use statins for a particular participant was under the discretion of the patient's primary care physician and was in no way influenced by the patient's participation in the ICARE study.
Robust clinical data has shown that individuals homozygous for the Hp 2 allele (Hp 2-2 genotype), 40% of DM individuals, have an up to 500% increased risk of CVD (21-24). A vast amount of basic science, animal and epidemiological data has provided the logic for targeting vitamin E administration specifically to DM individuals with the Hp 2-2 genotype. In the ICARE study (Israel CArdiovascular events Reduction with vitamin E (ClinicalTrials.gov# NCT00220831)) a prospective randomized placebo controlled trial of vitamin E therapy in DM individuals with the Hp 2-2 genotype, is was shown that vitamin E therapy results in a 50% reduction in CVD events. However, only about half of the Hp 2-2 DM participants in ICARE received statin therapy.

Experiment [3] in a line: Glucose control and lipid profile in Hp 2-2 DM mice given vitamin E. The format is in vivo. The note with it: 40 mg/kg/day.
From the text: as §1, §2

Another experiment has as its system J774 macrophage cells. Kind of experiment: HDL-mediated cholesterol efflux from J774 cells incubated with purified HDL, native or glycated Hb and Hp. The class given is cell-based, murine. The note with it: efflux with purified HDL taken as 100%; 0.8 umol/L; 3-hour incubation. How it is done: Cell Culture. J774 A.1 murine macrophage cells were purchased from the American Type Culture Collection (Manassas, Va.) and grown in DMEM supplemented with 5% FBS.
Cholesterol Efflux From Macrophages. Murine J774 cells (1×10^6/mL) were plated in 24-well plates for 48 hours, then washed and incubated in DMEM without serum containing ^3H-cholesterol (2 uCi/mL) for 1 hour. Cells were washed to remove unincorporated label and then incubated in 1 mL of DMEM supplemented with: (1) nothing (negative control); (2) purified HDL (100 ug/mL protein) (positive control); or (3) 30 uL of serum from individuals with or without DM with the different Hp genotypes. In studies using purified Hp and Hb rather than serum, the cells were incubated with purified HDL ([…] protein) with different combinations of native Hb, glycated Hb, Hp1-1, and Hp2-2 (all at 0.8 umol/L).
After a 3-hour incubation at 37° C. to permit efflux of ^3H-cholesterol from the cells into the medium, 500 uL of the medium was collected, the cells washed with PBS, and 0.1 N NaOH added to the cells. Cellular and medium ^3H-cholesterol were determined by liquid scintillation counting (LSC). The percentage of cholesterol efflux was calculated as the ratio of total counts per minute in the medium divided by the total counts per minute in the medium and in the cells. HDL-mediated cholesterol efflux (resulting from purified HDL or HDL found in the serum) was calculated after subtraction of the nonspecific efflux obtained in cells incubated in the absence of purified HDL or serum. Results reported for efflux elicited by serum samples are normalized for the serum HDL concentration derived as (measured efflux)(measured HDL in mg/dL)/50.

The next experiment has as its system HDL associated lipids. Put plainly: Measurement of HDL-associated lipid peroxides. The note with it: Hb 1 umol/L, 100 ug HDL. The format is biochemical, human. How it is done: Measurement of HDL-Associated Lipid Peroxides. Glycosylated or nonglycosylated Hb (1 umol/L) was incubated with 100 ug of HDL and 20 umol/L ascorbic acid in PBS with or without Hp1-1 or Hp2-2 (equimolar to Hb) for 3 hours at 37° C. Lipid peroxides were measured as previously described.

Values joined by “and” are separate entries in the source; they are usually repeats but may differ in a detail not shown here. Equal values may be shown once. “Also recorded” adds a separate entry of the source.

As for `Cc1c(C)c2c(c(C)c1O)CCC(C)(CCCC(C)CCCC(C)CCCC(C)C)O2` (racemic) [all-rac-.alpha-tocopherol], the “specific activity of 1 mg” value in experiment [1] was 1.10 IU.

With `CC(=O)Oc1c(C)c(C)c2c(c1C)CCC(C)(CCCC(C)CCCC(C)CCCC(C)C)O2` (racemic) [all-rac-α-tocopherol acetate], in experiment [1], the “specific activity of 1 mg” value is listed as 1.00 IU.

For `CC(=O)Oc1c(C)c(C)c2c(c1C)CCC(C)(CCC[C@H](C)CCC[C@H](C)CCCC(C)C)O2` (mixture of isomers) [vitamin E, alpha-tocopherol acetate], the “effect on the impairment in cholesterol efflux produced by DM in Hp 2 mice” value is “prevented; also recorded: prevent the impairment in efflux” in the experiment on J774 macrophages and “prevent the impairment in efflux” with J774 macrophages (listed as Vitamin E). Besides, the “reduction in CVD events” value in experiment [2] (DM individuals with the Hp 2-2 genotype, ICARE overall) came to 50%. Also, the “event rate (MI, stroke, CVD death)” value is 1.3% in experiment [2] (Hp 2-2 DM individuals taking statins in at least eight of the twelve months before enrollment, 18 month period) and 1.7% in experiment [2] (Hp 2-2 DM individuals taking statins in at least one of the twelve months before enrollment). For the same molecule, the “hazard ratio [HR] versus placebo” value in experiment [2] (Hp 2-2 DM individuals taking statins, 95% CI 0.15-0.83) is recorded as 0.31. Also, the “effect on glucose control” value in experiment [3] is given as “no effect”. Moreover, the “effect on the lipid profile” value in experiment [3] is “no effect”.

As to `CC(=O)Oc1c(C)c(C)c2c(c1C)CC[C@@](C)(CCC[C@H](C)CCC[C@H](C)CCCC(C)C)O2` [RRR-.alpha-tocopherol acetate], the “specific activity of 1 mg” value in experiment [1] was 1.36 IU.

Regarding `Cc1c(C)c2c(c(C)c1O)CC[C@@](C)(CCC[C@H](C)CCC[C@H](C)CCCC(C)C)O2` [RRR-.alpha-tocopherol], the “specific activity of 1 mg” value in experiment [1] is 1.49 IU.

Turning to “glycated Hb: Human hemoglobin glycated in vitro using glycolaldehyde”, the “reduction in HDL-mediated cholesterol efflux” value with J774 macrophage cells is 35% and 34±3%. Besides, the “increase in HDL-associated lipid peroxides” value in the experiment with HDL associated lipids (20 umol/L ascorbic acid, 3 hours at 37 C, mean of 2 independent experiments) was 142.3 nmol of lipid peroxide per milligram of HDL.

For the molecule “native Hb: Native hemoglobin isolated from fresh human blood”, the “effect on HDL-mediated efflux of 3H-cholesterol” value in the experiment on J774 macrophage cells is reported as “did not cause any reduction; also recorded: no effect”. Besides, in the experiment with HDL associated lipids (3 hours), the “increase in HDL-associated lipid peroxides” value was “no increase”.

B1: Haptoglobin: Highly conserved plasma glycoprotein, the major protein that binds free hemoglobin (protein, UniProt P00738 19-406, looked up)
Haptoglobin: VDSGNDVTDIADDGCPKPPEIAHGYVEHSVRYQCKNYYKLRTEGDGVYTLNDKKQWINKAVGDKLPECEADDGCPKPPEIAHGYVEHSVRYQCKNYYKLRTEGDGVYTLNNEKQWINKAVGDKLPECEAVCGKPKNPANPVQRILGGHLDAKGSFPWQAKMVSHHNLTTGATLINEQWLLTTAKNLFLNHSENATAKDIAPTLTLYVGKKQLVEIEKVVLHPNYSQVDIGLIKLKQKVSVNERVMPICLPSKDYAEVGRVGYVSGWGRNANFKFTDHLKYVMLPVADQDQCIRHYEGSTVPEKKTPKSPVGVQPILNEHTFCAGMSKYQEDTCYGDAGSAFAVHDLEEDTWYATGILSFDKSCAVAEYGVYVKVTSIQDWVQKTIAEN
For B1, the “effect on HDL-mediated efflux of 3H-cholesterol” value in the experiment with J774 macrophage cells is on record as “no effect”.
